Measurements from patent publication US20240180138A1, “Heating Transpiration Composition, and Method for Exterminating Harmful Arthropods Using Same” (SUMITOMO CHEMICAL COMPANY, LIMITED, priority 2021, published 2024).

Tests used:
Type in all cases: in vivo
[1] = molecular target: Common house mosquito (Culex pipiens pallens) female adult insects; test: Test Example 2: knockdown by burning insect repellent incense in metallic cylinder, 7 minutes; details: B alone
Description: (§1) Wood powder 75 parts by weight, tab powder 5 parts by weight, lees powder 5 parts by weight, siam powder 10 parts by weight, and tapioca starch powder 5 parts by weight were mixed, and appropriate amount of water was added thereto and the resulting mixture was kneaded thoroughly. The kneaded mixture was molded to a sheet shape, and punched out to a spiral shape, and thereafter, the resulting mixture was dried to make an approximate degree of 7 to 10% by weight of moisture contents to prepare the blank insect repellent incense.
(§2) The acetone solution of the testing compounds that were diluted to make the prescribed concentrations were applied dropwise uniformly to the obtained blank insect repellent incense, and then air-dried to prepare the test formulation.
Common house mosquito (Culex pipiens pallens) female adult insects 20 were placed in the glass tube with 4.5 cm of a diameter and 12 cm of a height, and they were shut in the glass tube by covering the opening parts of the top and the bottom thereof with a nylon net having 16 mesh by a rubber band. A metallic cylinder with 22 cm of a diameter and 83 cm of the height was installed and set up, and two (2) of the above glass tube in which common house mosquito (Culex pipiens pallens) were placed were installed in the upper opening part and then fixed. The formulation that was prepared according to the above process was set to fire, and set up in the bottom opening part of the metallic cylinder. Seven (7) minutes later, the number of knockdowned (hereinafter, abbreviated as “KD”) individuals were recorded. The experiments were conducted in triple replicates to calculate the KD ratio.

[2] = molecular target: Common house mosquito (Culex pipiens pallens) female adult insects; test: Test Example 3: knockdown by burning insect repellent incense in metallic cylinder, 10 minutes; details: B alone
Description: as §1, §2
Common house mosquito (Culex pipiens pallens) female adult insects 20 were placed in the glass tube with 4.5 cm of a diameter and 12 cm of a height, and they were shut in the glass tube by covering the opening parts of the top and the bottom thereof with a nylon net having 16 mesh by a rubber band. […] Ten (10) minutes later, the number of knockdowned (hereinafter, abbreviated as “KD”) individuals were recorded. […]

[3] = molecular target: Common house mosquito (Culex pipiens pallens) female adult insects; test: Test Example 1: knockdown by burning insect repellent incense in metallic cylinder, 6 minutes; details: B alone, 0.01% in incense
Description: as §1, §2
Common house mosquito (Culex pipiens pallens) female adult insects 20 were placed in the glass tube with 4.5 cm of a diameter and 12 cm of a height, and they were shut in the glass tube by covering the opening parts of the top and the bottom thereof with a nylon net having 16 mesh by a rubber band. […] Six (6) minutes later, the number of individuals of knockdowned common house mosquito (Culex pipiens pallens) were recorded. […]

| SMILES | KD ratio when used alone ([1]; 0.005%) | KD ratio when used alone ([1]; 0.01%) | KD ratio when used alone ([2]; 0.005%) | KD ratio when used alone ([2]; 0.01%) | KD ratio when used alone [3] |
| --- | --- | --- | --- | --- | --- |
| COCc1c(F)c(F)c(COC(=O)C2C(C=C(C)C)C2(C)C)c(F)c1F (centres unmarked) [Dimefluthrin, dimefluthrin] | KD ratio 2.7% | KD ratio 68.3% | KD ratio 45.0% |  |  |
| CC1(C)[C@H](C=C(Cl)Cl)[C@H]1C(=O)OCc1c(F)c(F)cc(F)c1F [Transfluthrin, transfluthrin] | KD ratio 5.0% | KD ratio 10.0% |  | KD ratio 81.7% |  |
| C/C=C/C1C(C(=O)OCc2c(F)c(F)c(COC)c(F)c2F)C1(C)C (centres unmarked) [Metofluthrin, metofluthrin] |  | KD ratio 75.0% |  |  | KD ratio 30.0% |
